Target: T1, oestrogen receptor (ER) (Homo sapiens, UniProt P03372)
T1 construct: These MVLN cells express, along with the functional oestrogen receptor (ER), a reporter construct; endogenous in cells; host or cells: MVLN cells (MCF7 derivative with ER-responsive luciferase reporter)
T1 sequence (P03372 1-595): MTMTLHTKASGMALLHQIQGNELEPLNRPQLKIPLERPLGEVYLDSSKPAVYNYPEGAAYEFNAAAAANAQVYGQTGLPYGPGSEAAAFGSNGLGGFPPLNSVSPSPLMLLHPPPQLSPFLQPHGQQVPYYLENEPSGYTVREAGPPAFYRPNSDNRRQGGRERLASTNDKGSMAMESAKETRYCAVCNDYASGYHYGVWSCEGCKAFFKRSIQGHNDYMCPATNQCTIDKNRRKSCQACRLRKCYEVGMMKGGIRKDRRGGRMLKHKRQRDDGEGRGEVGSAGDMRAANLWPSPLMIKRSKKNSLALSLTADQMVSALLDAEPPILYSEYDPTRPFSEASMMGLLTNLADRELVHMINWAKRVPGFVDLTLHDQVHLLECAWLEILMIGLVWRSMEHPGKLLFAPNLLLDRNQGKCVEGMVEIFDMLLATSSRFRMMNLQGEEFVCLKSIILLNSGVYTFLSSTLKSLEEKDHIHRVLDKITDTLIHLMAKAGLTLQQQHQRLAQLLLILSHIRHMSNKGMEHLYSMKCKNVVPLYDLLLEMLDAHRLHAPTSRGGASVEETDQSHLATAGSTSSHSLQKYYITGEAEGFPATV
Test: Anti-oestrogenic action in MVLN cells (inhibition of estradiol-induced luciferase, transactivation antagonism)
Assay type: cell-based
Details: inhibition of estradiol-induced luciferase activity, read-out: Anti-oestrogenic action in vitro: MVLN transactivation antagonism IC50
Description: The anti-oestrogenic action of the claimed pharmacological compounds was investigated in so-called MVLN cells in vitro. MVLN cells are derivatives of the hormone-responsive MCF7 breast cancer cells known by a person skilled in the art. These MVLN cells express, along with the functional oestrogen receptor (ER), a reporter construct, which under ER-activation expresses luciferase. Determination of the activity of the induced luciferase permits a direct conclusion on the oestrogen properties of substances. To investigate the anti-oestrogenic properties of the pharmacological compounds, they were investigated in the presence of oestrogen for their potential for inhibiting the luciferase signal induced by estradiol.
The claimed pharmacological test substances were investigated in MVLN cells for their anti-oestrogenic potential, as described (see Table 2).

Structure (SMILES) | IC50 [nM]
CN(CCCCCC[S+]([O-])CCCC(F)(F)C(F)(F)F)CCCCCC1=C(c2cccc(O)c2)CCCc2cc(O)ccc21 (racemic) [Example 10, 8-(3-Hydroxyphenyl)-9-[5-(methyl{6-[(RS)-(4,4,5,5,5-pentafluoropentyl)sulphinyl]hexyl}amino)pentyl]-6,7-dihydro-5H-benzo[7]annulen-3-ol] | 2
CN(CCCCCCC1=C(c2ccc(F)c(O)c2)CCCc2cc(O)c(F)cc21)CCCCS(=O)(=O)CCCC(F)(F)F [Example 128, 2-Fluoro-8-(4-fluoro-3-hydroxyphenyl)-9-[6-(methyl{4-[(4,4,4-trifluorobutyl)sulphonyl]butyl}amino)hexyl]-6,7-dihydro-5H-benzo[7]annulen-3-ol] | 5
CCN(CCCCCCC1=C(c2ccccc2)CCCc2cc(O)ccc21)CCCS(=O)(=O)CCC(F)(F)F [Example 77, 9-[6-(Ethyl{3-[(3,3,3-trifluoropropyl)sulphonyl]propyl}amino)hexyl]-8-phenyl-6,7-dihydro-5H-benzo[7]annulen-3-ol] | 61
CN(CCCCCCC1=C(c2ccc(F)c(O)c2)CCCc2c1ccc(O)c2F)CCCCS(=O)(=O)CCCC(F)(F)F [Example 118, 4-Fluoro-8-(4-fluoro-3-hydroxyphenyl)-9-[6-(methyl{4-[(4,4,4-trifluorobutyl)sulphonyl]butyl}amino)hexyl]-6,7-dihydro-5H-benzo[7]annulen-3-ol] | 9
O=S(=O)(CCCN(CCCO)CCCCCCC1=C(c2cccc(O)c2)CCCc2cc(O)ccc21)CCC(F)(F)F [Example 99, 8-(3-Hydroxyphenyl)-9-{6-[(3-hydroxypropyl){3-[(3,3,3-trifluoropropyl)sulphonyl]propyl}amino]hexyl}-6,7-dihydro-5H-benzo[7]annulen-3-ol] | 8
CN(CCCCCCC1=C(c2ccccc2)CCCc2cc(O)ccc21)CCCC[S+]([O-])CCCC(F)(F)C(F)(F)F (racemic) [Example 66, 9-[6-(Methyl{4-[(RS)-(4,4,5,5,5-pentafluoropentyl)sulphinyl]butyl}amino)hexyl]-8-phenyl-6,7-dihydro-5H-benzo[7]annulen-3-ol] | 5
CN(CCCCCCC1=C(c2ccc(F)c(O)c2)CCCc2c1ccc(O)c2F)CCCC[S+]([O-])CCC(F)(F)F (racemic) [Example 120, 4-Fluoro-8-(4-fluoro-3-hydroxyphenyl)-9-[6-(methyl{4-[(RS)-(3,3,3-trifluoropropyl)sulphinyl]butyl}amino)hexyl]-6,7-dihydro-5H-benzo[7]annulen-3-ol] | 5
CN(CCCCCCC1=C(c2ccc(C#N)cc2)CCCc2cc(O)ccc21)CCCS(=O)(=O)CCCC(F)(F)C(F)(F)F [Example 22, 4-{3-Hydroxy-9-[6-(methyl{3-[(4,4,5,5,5-pentafluoropentyl)sulphonyl]propyl}amino)hexyl]-6,7-dihydro-5H-benzo[7]annulen-8-yl}benzonitrile] | 17
CN(CCCCCC1=C(c2ccc(S(C)(=O)=O)cc2)CCCc2cc(O)ccc21)CCCSCCCC(F)(F)C(F)(F)F [Example 45, 8-(4-Mesylphenyl)-9-[5-(methyl{3-[(4,4,5,5,5-pentafluoropentyl)sulphanyl]propyl}amino)pentyl]-6,7-dihydro-5H-benzo[7]annulen-3-ol] | 65
CN(CCCCCCC1=C(c2ccc(F)c(O)c2)CCCc2c1ccc(O)c2F)CCCS(=O)(=O)CCC(F)(F)C(F)(F)F [Example 116, 4-Fluoro-8-(4-fluoro-3-hydroxyphenyl)-9-[6-(methyl{3-[(3,3,4,4,4-pentafluorobutyl)sulphonyl]propyl}amino)hexyl]-6,7-dihydro-5H-benzo[7]annulen-3-ol] | 34
[O-][S+](CCCN(CCCO)CCCCCCC1=C(c2cccc(O)c2)CCCc2cc(O)ccc21)CCCC(F)(F)C(F)(F)F (racemic) [Example 88, 8-(3-Hydroxyphenyl)-9-{6-[(3-hydroxypropyl){3-[(RS)-(4,4,5,5,5-pentafluoropentyl)sulphinyl]propyl}amino]hexyl}-6,7-dihydro-5H-benzo[7]annulen-3-ol] | 1
CN(CCCCCCC1=C(c2ccc(F)c(O)c2)CCCc2cc(O)c(F)cc21)CCCS(=O)(=O)CCC(F)(F)C(F)(F)F [Example 123, 2-Fluoro-8-(4-fluoro-3-hydroxyphenyl)-9-[6-(methyl{3-[(3,3,4,4,4-pentafluorobutyl)sulphonyl]propyl}amino)hexyl]-6,7-dihydro-5H-benzo[7]annulen-3-ol] | 11
CN(CCCCCCC1=C(c2cccc(O)c2)CCCc2cc(O)ccc21)CCC[S+]([O-])CCC(F)(F)F (racemic) [Example 55, 8-(3-Hydroxyphenyl)-9-[6-(methyl{3-[(RS)-(3,3,3-trifluoropropyl)sulphinyl]propyl}amino)hexyl]-6,7-dihydro-5H-benzo[7]annulen-3-ol] | 2
CN(CCCCCC1=C(c2cccnc2)CCCc2cc(O)ccc21)CCCS(=O)(=O)CCCC(F)(F)C(F)(F)F [Example 41, 9-[5-(Methyl{3-[(4,4,5,5,5-pentafluoropentyl)sulphonyl]propyl}amino)pentyl]-8-(3-pyridyl)-6,7-dihydro-5H-benzo[7]annulen-3-ol] | 110
CN(CCCCCCC1=C(c2ccc(O)cc2)CCCc2cc(O)ccc21)CCC[S+]([O-])CCCC(F)(F)C(F)(F)F (racemic) [Example 26, 8-(4-Hydroxyphenyl)-9-[6-(methyl{3-[(RS)-(4,4,5,5,5-pentafluoropentyl)sulphinyl]propyl}amino)hexyl]-6,7-dihydro-5H-benzo[7]annulen-3-ol] | 1
CN(CCCCCC1=C(c2cccc(O)c2)CCCc2cc(O)ccc21)CCCCCS(=O)(=O)CCCC(F)(F)C(F)(F)F [Example 9, 8-(3-Hydroxyphenyl)-9-[5-(methyl{5-[(4,4,5,5,5-pentafluoropentyl)sulphonyl]pentyl}amino)pentyl]-6,7-dihydro-5H-benzo[7]annulen-3-ol] | 8
CN(CCCCCCC1=C(c2ccc(F)c(O)c2)CCCc2cc(O)c(F)cc21)CCC[S+]([O-])CCC(F)(F)C(F)(F)F (racemic) [Example 122, 2-Fluoro-8-(4-fluoro-3-hydroxyphenyl)-9-[6-(methyl{3-[(RS)-(3,3,4,4,4-pentafluorobutyl)sulphinyl]propyl}amino)hexyl]-6,7-dihydro-5H-benzo[7]annulen-3-ol] | 6
O=S(=O)(CCCN(CCO)CCCCCCC1=C(c2cccc(O)c2)CCCc2cc(O)ccc21)CCC(F)(F)F [Example 98, 9-{6-[(2-Hydroxyethyl){3-[(3,3,3-trifluoropropyl)sulphonyl]propyl}amino]hexyl}-8-(3-hydroxyphenyl)-6,7-dihydro-5H-benzo[7]annulen-3-ol] | 3
[O-][S+](CCCN(CCCO)CCCCCCC1=C(c2ccccc2)CCCc2cc(O)ccc21)CCCC(F)(F)C(F)(F)F (racemic) [Example 72, 9-{6-[(3-Hydroxypropyl){3-[(RS)-(4,4,5,5,5-pentafluoropentyl)sulphinyl]propyl}amino]hexyl}-8-phenyl-6,7-dihydro-5H-benzo[7]annulen-3-ol] | 4
CN(CCCCCCC1=C(c2ccc(F)c(O)c2)CCCc2cc(O)c(F)cc21)CCC[S+]([O-])CCCC(F)(F)C(F)(F)F (racemic) [Example 130, 2-Fluoro-8-(4-fluoro-3-hydroxyphenyl)-9-[6-(methyl{3-[(RS)-(4,4,5,5,5-pentafluoropentyl)sulphinyl]propyl}amino)hexyl]-6,7-dihydro-5H-benzo[7]annulen-3-ol] | 5
CCN(CCCCCCC1=C(c2cccc(O)c2)CCCc2cc(O)ccc21)CCC[S+]([O-])CCCC(F)(F)C(F)(F)F (racemic) [Example 86, 9-[6-(Ethyl{3-[(RS)-(4,4,5,5,5-pentafluoropentyl)sulphinyl]propyl}amino)hexyl]-8-(3-hydroxyphenyl)-6,7-dihydro-5H-benzo[7]annulen-3-ol] | 1
CC(C)(O)CN(CCCCCCC1=C(c2ccccc2)CCCc2cc(O)ccc21)CCC[S+]([O-])CCC(F)(F)F (racemic) [Example 82, 9-{6-[(2-Hydroxy-2-methylpropyl){3-[(RS)-(3,3,3-trifluoropropyl)sulphinyl]propyl}amino]hexyl}-8-phenyl-6,7-dihydro-5H-benzo[7]annulen-3-ol] | 9
[O-][S+](CCCN(CCO)CCCCCCC1=C(c2cccc(O)c2)CCCc2cc(O)ccc21)CCCC(F)(F)C(F)(F)F (racemic) [Example 87, 9-{6-[(2-Hydroxyethyl){3-[(RS)-(4,4,5,5,5-pentafluoropentyl)sulphinyl]propyl}amino]hexyl}-8-(3-hydroxyphenyl)-6,7-dihydro-5H-benzo[7]annulen-3-ol] | 1

Reference: US20150080438A1, “6,7-Dihydro-5H-benzo[7]annulene derivatives, processes for their preparation, pharmaceutical products comprising them and their use for preparing medicaments” (Bayer Intellectual Property GmbH, priority 2011, published 2015)
